Test results as given in publication PMC11195807, “Development of a multi-targeted chemotherapeutic approach based on G-quadruplex stabilisation and carbonic anhydrase inhibition” (Journal of Enzyme Inhibition and Medicinal Chemistry, 2024).
Where two headings read alike, the source gives them in different places.

Tests used:
c-Myc = assay: CD melting experiments, c-Myc GQ; type: binding; conditions: for ΔΔT1/2 c-Myc: ΔT1/2 of compound minus ΔT1/2 of berberine, 1 molar equiv; for ΔT1/2 c-Myc: 1 molar equiv compound, T1/2 of DNA alone 70.0 °C
hCA II = molecular target: T1, hCA II (Homo sapiens, UniProt P00918); assay: stopped-flow CO2 hydrase assay, hCA II; type: biochemical
T1 construct: made in house
Description: . The structure-activity relationship is discussed separately for the two compound subsets. Another code pattern is included for the MTDLs in Table 1, which indicates the derivative CAI type (sulphonamide, S or coumarin, C) and the number of atoms in the spacers connecting either berberine and the triazole (carbon atoms) or the triazole and the benzenesulfonamide/coumarin scaffolds (carbon or oxygen atoms).
(§1) An Applied Photophysics stopped-flow instrument has been used for assaying the CA-catalysed CO2 hydration activity, as reported earlier. The enzyme concentrations were in the range 5–12 nM. All hCA isoforms were recombinant proteins, being obtained in-house as reported earlier.

c-Kit1 = assay: CD melting experiments, c-Kit1 GQ; type: binding; conditions: for ΔT1/2 c-Kit1: 2 molar equiv compound, T1/2 of DNA alone 55.0 °C; for ΔΔT1/2 c-Kit1: ΔT1/2 of compound minus ΔT1/2 of berberine, 2 molar equiv
hCA I = molecular target: T2, hCA I (Homo sapiens, UniProt P00915); assay: stopped-flow CO2 hydrase assay, hCA I; type: biochemical
T2 construct: made in house
Procedure: as §1

HeLa cells = assay: MTT assay, HeLa cells in normoxia; type: cell-based; conditions: for IC50: Homo sapiens
Description: Combining the results on carbonic anhydrase inhibition and GQ thermal stabilisation, we selected the sulphonamides S-2,0, S-4,0, S-5,0 and the coumarins C-3,2, C-4,2, C-5,2 as the most promising MTDLs to be further investigated, since able to both efficiently suppress the activity of the hCAs IX/XII and stabilise GQ structures, in vitro. Moreover, given that crystals suitable for X-ray diffraction analyses had been successfully obtained for the human telomeric DNA GQ in complex with S-3,2, we also included such sulphonamide derivative in the subsequent studies. Thus, we assessed the cytotoxicity of the selected MTDLs on CA IX-positive HeLa cells, using the MTT assay.
HeLa cells were grown in Dulbecco’s Modified Eagle’s Medium supplemented with 10% FBS, 100 U/mL penicillin, and 100 μg/mL streptomycin, at 37 °C, in a 5% CO2/95% air atmosphere. Cells were sub-cultured at 90% confluence, in the split ratio 1:8, every 3–5 days. The MTDLs used in this study, as well as the CAIs S and C, were dissolved in DMSO at 40 mM (for the sulphonamides) or 10 mM (for the coumarins) concentration. As for berberine, a 50 mM stock solution in DMSO was prepared. Each tested compound was diluted in cell culture medium to the required concentration, immediately prior to use. As regards the experiments under hypoxic conditions, an 80 mM stock solution of CoCl2 was prepared in sterile distilled water and further diluted in medium to obtain the final desired concentrations.
For the MTT experiments in the presence of normal oxygen levels, HeLa cells were seeded in 96-well plates at a density of 15,000 cells per well (culture medium volume – 100 μL/well) and incubated at 37 °C, for 24 h. The medium was then removed, and HeLa were incubated, for 48 h, with fresh medium containing increasing concentrations of MTDLs, single-target-directed agents (berberine, S, and C) or vehicle (0.5% DMSO). The MTDL C-4,2 was also tested for 12 h. As for the co-treatments, cells were co-treated for 12 h with equimolar concentrations of berberine and C. As regards the MTT experiments under hypoxic conditions, HeLa cells were seeded in 96-well plates (8,000 cells per well) and incubated overnight, pre-treated with 50 μM cobalt (II) chloride hexahydrate (CoCl2) and then, for the following 12 h, either exposed to increasing concentrations of C-4,2 or vehicle (0.5% DMSO), or co-treated with equimolar concentrations of berberine and C. Each condition was assayed in triplicate. At the end of the treatments, 10 µL of MTT reagent were added to each well, at a final concentration of 0.5 mg/mL, and the plates were incubated at 37 °C for 4 h. To dissolve the resulting purple formazan crystals, 100 μL of the solubilisation solution were added into each well and the plates were allowed to stand overnight in the incubator (37 °C, 5% CO2/95% air). Finally, the optical density of the samples (at 570 nm) was measured on an ELx800 Absorbance Microplate Reader (BioTek Instruments, Inc., Winooski, VT, USA). The percentage (%) of cell survival for each condition was calculated by using the following equation: % cell survival=OD− OD0/ODCONTROL− OD0×100 where OD is the optical density of the sample, OD0 is the optical density of the background signal, and ODCONTROL is the optical density of the control sample (cells treated with vehicle, 0.5% DMSO). The concentration able to reduce by 50% the cellular viability (IC50) was calculated, for each investigated compound, using Prism 8.0.2 (GraphPad, San Diego, CA, USA) and plotting the percentage of cell survival versus the compound concentration (µM).

[1] = sulphonamides, inhibitor-enzyme incubation 15 min, mean ± SEM of three assays
[2] = 48 h, normoxia, read-out: IC50 (50% of cell viability reduction), MTT assay
[3] = coumarins, inhibitor-enzyme incubation 6 h

T2 sequence (P00915 whole entry): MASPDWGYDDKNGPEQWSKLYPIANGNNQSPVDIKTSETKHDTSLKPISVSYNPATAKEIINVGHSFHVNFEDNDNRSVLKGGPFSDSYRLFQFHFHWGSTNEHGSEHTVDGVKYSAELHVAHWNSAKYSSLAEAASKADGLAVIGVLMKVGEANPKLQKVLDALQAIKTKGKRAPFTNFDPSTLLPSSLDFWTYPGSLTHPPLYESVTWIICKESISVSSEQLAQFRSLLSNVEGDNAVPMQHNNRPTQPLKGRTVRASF

Structure (SMILES)	ΔΔT1/2 c-Myc (c-Myc)	ΔΔT1/2 c-Myc (c-Myc; listed as S-2,0)	Ki (hCA II; [1])	ΔT1/2 c-Kit1 (c-Kit1)	ΔΔT1/2 c-Kit1 (c-Kit1)	ΔΔT1/2 c-Kit1 (c-Kit1; listed as S-2,0)	Ki (hCA I; [1])	IC50 (50% of cell viability reduction), MTT assay (HeLa cells; 48 h, normoxia)	IC50 (HeLa cells; [2])	ΔT1/2 c-Myc (c-Myc)	ΔΔT1/2 c-Myc (c-Myc; listed as S-4,0)	ΔΔT1/2 c-Kit1 (c-Kit1; listed as S-4,0)	ΔΔT1/2 c-Kit1 (c-Kit1; listed as S-5,0)	reduction in the percentage of cell survival (HeLa cells; 48 h, concentration up to 200 µM)	Ki (hCA II; [3])	Ki (hCA I; [3])	cytotoxicity compared with co-exposure to equimolar berberine and C (HeLa cells; 12 h, normoxia)	IC50 (HeLa cells; 12 h treatment, normoxia, read-out: IC50, MTT assay)	ΔΔT1/2 c-Myc (c-Myc; listed as C-5,2)
COc1ccc2cc3[n+](cc2c1OCCn1cc(-c2ccc(S(N)(=O)=O)cc2)nn1)CCc1cc2c(cc1-3)OCO2 [Compound 26, 10-Methoxy-9–(2-(4–(4-sulfamoylphenyl)-1H-1,2,3-triazol-1-yl)ethoxy)-5,6-dihydro-[1,3]dioxolo[4,5-g]isoquinolino[3,2-a]isoquinolin-7-ium hexafluorophosphate]	>13.0 °C	> 13.0 °C	0.0594 ± 0.0038 µM	22.0 °C	9.0 °C	≥ 6.0 °C	0.581 ± 0.0325 µM	fell outside the explored range of concentrations	> 200 µM										
COc1ccc2cc3[n+](cc2c1OCCCn1cc(COc2ccc(S(N)(=O)=O)cc2)nn1)CCc1cc2c(cc1-3)OCO2 [Compound 29, 10-Methoxy-9–(3-(4-((4-sulfamoylphenoxy)methyl)-1H-1,2,3-triazol-1-yl)propoxy)-5,6-dihydro-[1,3]dioxolo[4,5-g]isoquinolino[3,2-a]isoquinolin-7-ium hexafluorophosphate]	4.5 °C		0.0623 ± 0.0047 µM	16.0 °C	3.0 °C		0.805 ± 0.0608 µM	fell outside the explored range of concentrations	> 200 µM	16.5 °C									
COc1ccc2cc3[n+](cc2c1OCCCCn1cc(-c2ccc(S(N)(=O)=O)cc2)nn1)CCc1cc2c(cc1-3)OCO2 [Compound 30, 10-Methoxy-9–(4–(4-(4-sulfamoylphenyl)-1H-1,2,3-triazol-1-yl)butoxy)-5,6-dihydro-[1,3]dioxolo[4,5-g]isoquinolino[3,2-a]isoquinolin-7-ium hexafluorophosphate]	>13.0 °C		0.0551 ± 0.0038 µM	20.5 °C	7.5 °C		0.592 ± 0.0363 µM		35 µM		> 13.0 °C	≥ 6.0 °C							
COc1ccc2cc3[n+](cc2c1OCCCCCn1cc(-c2ccc(S(N)(=O)=O)cc2)nn1)CCc1cc2c(cc1-3)OCO2 [Compound 32, 10-Methoxy-9-((5–(4-(4-sulfamoylphenyl)-1H-1,2,3-triazol-1-yl)pentyl)oxy)-5,6-dihydro-[1,3]dioxolo[4,5-g]isoquinolino[3,2-a]isoquinolin-7-ium hexafluorophosphate]	1.0 °C		0.0158 ± 0.0012 µM	19.0 °C	6.0 °C		0.574 ± 0.0358 µM	fell outside the explored range of concentrations	> 200 µM	13.0 °C			≥ 6.0 °C	around 40%					
COc1ccc2cc3[n+](cc2c1OCCCn1cc(COc2ccc4ccc(=O)oc4c2)nn1)CCc1cc2c(cc1-3)OCO2 [Compound 34, 10-Methoxy-9–(3-(4-(((2-oxo-2H-chromen-7-yl)oxy)methyl)-1H-1,2,3-triazol-1-yl)propoxy)-5,6-dihydro-[1,3]dioxolo[4,5-g]isoquinolino[3,2-a]isoquinolin-7-ium hexafluorophosphate]	6.0 °C			20.0 °C	7.0 °C			fell outside the explored range of concentrations	> 50 µM	18.0 °C					> 100 µM	> 100 µM			
COc1ccc2cc3[n+](cc2c1OCCCCn1cc(COc2ccc4ccc(=O)oc4c2)nn1)CCc1cc2c(cc1-3)OCO2 [Compound 37, 10-Methoxy-9–(4-(4-(((2-oxo-2H-chromen-7-yl)oxy)methyl)-1H-1,2,3-triazol-1-yl)butoxy)-5,6-dihydro-[1,3]dioxolo[4,5-g]isoquinolino[3,2-a]isoquinolin-7-ium hexafluorophosphate]	1.0 °C			17.5 °C	4.5 °C				40 µM	13.0 °C					> 100 µM	> 100 µM	greater	46 µM	
COc1ccc2cc3[n+](cc2c1OCCCCCn1cc(COc2ccc4ccc(=O)oc4c2)nn1)CCc1cc2c(cc1-3)OCO2 [Compound 39, 10-Methoxy-9-((5–(4-(((2-oxo-2H-chromen-7-yl)oxy)methyl)-1H-1,2,3-triazol-1-yl)pentyl)oxy)-5,6-dihydro-[1,3]dioxolo[4,5-g]isoquinolino[3,2-a]isoquinolin-7-ium hexafluorophosphate]	>13.0 °C			20.0 °C	7.0 °C				37.5 µM						> 100 µM	> 100 µM			> 13.0 °C
